From patent US9884842B2, “Combretastatin analogs” (The Board of Trustees of the University of Arkansas, priority 2013, dated 2018)

What follows are compounds tested on NCI-H522 (assay: NCI growth inhibition and cytotoxicity screen, Lung Cancer panel). Conditions: Homo sapiens, NCI-H522; Table 1; cell line NCIH522 (Lung Cancer).
Format: cell-based
`COc1cc(/C=C/c2nc3ccccc3s2)cc(OC)c1OC` [Formula (I)(d)] showed a GI50 of 0.16 nM.

Same assay, conditions: Homo sapiens, NCI-H522; Table 1; cell line NCIH522 (Lung Cancer); read-out: LC50 (the source's name)
Work on `COc1cc(/C=C/c2nc3ccccc3s2)cc(OC)c1OC` [Formula (I)(d)] yielded a CC50 of 47900 nM.

The compounds below were run on SF-295 (assay: NCI growth inhibition and cytotoxicity screen, CNS Cancer panel). Conditions: Homo sapiens, SF-295; Table 1; cell line SF-2395 (CNS Cancer).
Format: cell-based
Work on `COc1cc(/C=C/c2nc3ccccc3s2)cc(OC)c1OC` [Formula (I)(d)] yielded a GI50 of 0.07 nM.

Same assay, conditions: Homo sapiens, SF-295; Table 1; cell line SF-2395 (CNS Cancer); read-out: LC50 (the source's name)
For `COc1cc(/C=C/c2nc3ccccc3s2)cc(OC)c1OC` [Formula (I)(d)], the CC50 was over 100000 nM.

What follows are compounds tested on MOLT-4 (assay: NCI growth inhibition and cytotoxicity screen, Leukemia panel). Conditions: Homo sapiens, MOLT-4.
`COc1cc(/C=C/c2nc3ccccc3s2)cc(OC)c1OC` [Formula (I)(d)] was tested, and the GI50 was 1.28 nM.

Same assay, conditions: Homo sapiens, MOLT-4, read-out: LC50
With `COc1cc(/C=C/c2nc3ccccc3s2)cc(OC)c1OC` [Formula (I)(d)] the CC50 was over 100000 nM.

Each compound was assayed on RPMI-8226 in the same assay as above. Conditions: Homo sapiens, RPMI-8226.
Work on `COc1cc(/C=C/c2nc3ccccc3s2)cc(OC)c1OC` [Formula (I)(d)] yielded a GI50 of 0.15 nM.

Same assay, conditions: Homo sapiens, RPMI-8226, read-out: LC50
`COc1cc(/C=C/c2nc3ccccc3s2)cc(OC)c1OC` [Formula (I)(d)] gave a CC50 of over 100000 nM.

Each compound was assayed on SR in the same assay as above. Conditions: Homo sapiens.
Compound `COc1cc(/C=C/c2nc3ccccc3s2)cc(OC)c1OC` [Formula (I)(d)] has a GI50 of 0.036 nM.

Same assay, conditions: Homo sapiens, read-out: LC50
In the case of `COc1cc(/C=C/c2nc3ccccc3s2)cc(OC)c1OC` [Formula (I)(d)], the CC50 is reported as over 100000 nM.

These compounds were tested on LOX-IMVI (assay: NCI growth inhibition and cytotoxicity screen, Melanoma panel). Conditions: Homo sapiens.
Compound `COc1cc(/C=C/c2nc3ccccc3s2)cc(OC)c1OC` [Formula (I)(d)] has a GI50 of 1.9 nM.

Same assay, conditions: Homo sapiens, read-out: LC50
`COc1cc(/C=C/c2nc3ccccc3s2)cc(OC)c1OC` [Formula (I)(d)] was tested, and the CC50 was 67900 nM.

These compounds were tested on M14 in the same assay as above. Conditions: Homo sapiens, M14.
Compound `COc1cc(/C=C/c2nc3ccccc3s2)cc(OC)c1OC` [Formula (I)(d)] has a GI50 of 0.063 nM.

Same assay, conditions: Homo sapiens, M14, read-out: LC50
Work on `COc1cc(/C=C/c2nc3ccccc3s2)cc(OC)c1OC` [Formula (I)(d)] yielded a CC50 of 48500 nM.

These compounds were tested on UACC-257 in the same assay as above. Conditions: Homo sapiens, UACC-257.
Compound `COc1cc(/C=C/c2nc3ccccc3s2)cc(OC)c1OC` [Formula (I)(d)] has a GI50 of 15 nM.

Same assay, conditions: Homo sapiens, UACC-257, read-out: LC50
For `COc1cc(/C=C/c2nc3ccccc3s2)cc(OC)c1OC` [Formula (I)(d)], the CC50 was over 100000 nM.

Each compound was assayed on UACC-62 in the same assay as above. Conditions: Homo sapiens, UACC-62.
`COc1cc(/C=C/c2nc3ccccc3s2)cc(OC)c1OC` [Formula (I)(d)] was tested, and the GI50 was 0.05 nM.

Same assay, conditions: Homo sapiens, UACC-62, read-out: LC50
Work on `COc1cc(/C=C/c2nc3ccccc3s2)cc(OC)c1OC` [Formula (I)(d)] yielded a CC50 of 55900 nM.

The compounds below were run on SNB-19 (assay: NCI growth inhibition and cytotoxicity screen, CNS Cancer panel). Conditions: Homo sapiens, SNB-19.
`COc1cc(/C=C/c2nc3ccccc3s2)cc(OC)c1OC` [Formula (I)(d)] showed a GI50 of 0.095 nM.

Same assay, conditions: Homo sapiens, SNB-19, read-out: LC50
For `COc1cc(/C=C/c2nc3ccccc3s2)cc(OC)c1OC` [Formula (I)(d)], the CC50 was over 100000 nM.

Each compound was assayed on SNB-75 in the same assay as above. Conditions: Homo sapiens, SNB-75.
Compound `COc1cc(/C=C/c2nc3ccccc3s2)cc(OC)c1OC` [Formula (I)(d)] has a GI50 of 0.16 nM.

Same assay, conditions: Homo sapiens, SNB-75, read-out: LC50
`COc1cc(/C=C/c2nc3ccccc3s2)cc(OC)c1OC` [Formula (I)(d)] was tested, and the CC50 was over 100000 nM.

These compounds were tested on U251 in the same assay as above. Conditions: Homo sapiens, U-251.
`COc1cc(/C=C/c2nc3ccccc3s2)cc(OC)c1OC` [Formula (I)(d)] was tested, and the GI50 was 0.88 nM.

Same assay, conditions: Homo sapiens, U-251, read-out: LC50
Compound `COc1cc(/C=C/c2nc3ccccc3s2)cc(OC)c1OC` [Formula (I)(d)] has a CC50 of over 100000 nM.

Each compound was assayed on NCI-H226 (assay: NCI growth inhibition and cytotoxicity screen, Lung Cancer panel). Conditions: Homo sapiens, NCI-H226.
`COc1cc(/C=C/c2nc3ccccc3s2)cc(OC)c1OC` [Formula (I)(d)] gave a GI50 of 0.24 nM.

Same assay, conditions: Homo sapiens, NCI-H226, read-out: LC50
`COc1cc(/C=C/c2nc3ccccc3s2)cc(OC)c1OC` [Formula (I)(d)] was tested, and the CC50 was 88500 nM.

Each compound was assayed on NCI-H23 in the same assay as above. Conditions: Homo sapiens, NCI-H23.
Work on `COc1cc(/C=C/c2nc3ccccc3s2)cc(OC)c1OC` [Formula (I)(d)] yielded a GI50 of 0.72 nM.

Same assay, conditions: Homo sapiens, NCI-H23, read-out: LC50
In the case of `COc1cc(/C=C/c2nc3ccccc3s2)cc(OC)c1OC` [Formula (I)(d)], the CC50 is reported as over 100000 nM.

Each compound was assayed on COLO 205 (assay: NCI growth inhibition and cytotoxicity screen, Colon Cancer panel). Conditions: Homo sapiens, COLO 205.
`COc1cc(/C=C/c2nc3ccccc3s2)cc(OC)c1OC` [Formula (I)(d)] gave a GI50 of 0.049 nM.

Same assay, conditions: Homo sapiens, COLO 205, read-out: LC50
With `COc1cc(/C=C/c2nc3ccccc3s2)cc(OC)c1OC` [Formula (I)(d)] the CC50 was 24600 nM.

What follows are compounds tested on HCT-116 in the same assay as above. Conditions: Homo sapiens, HCT-116.
With `COc1cc(/C=C/c2nc3ccccc3s2)cc(OC)c1OC` [Formula (I)(d)] the GI50 was 0.0072 nM.

Same assay, conditions: Homo sapiens, HCT-116, read-out: LC50
Work on `COc1cc(/C=C/c2nc3ccccc3s2)cc(OC)c1OC` [Formula (I)(d)] yielded a CC50 of over 100000 nM.

Each compound was assayed on HCT-15 in the same assay as above. Conditions: Homo sapiens, HCT-15.
`COc1cc(/C=C/c2nc3ccccc3s2)cc(OC)c1OC` [Formula (I)(d)] gave a GI50 of 0.063 nM.

Same assay, conditions: Homo sapiens, HCT-15, read-out: LC50
Compound `COc1cc(/C=C/c2nc3ccccc3s2)cc(OC)c1OC` [Formula (I)(d)] has a CC50 of over 100000 nM.

These compounds were tested on HT29 in the same assay as above. Conditions: Homo sapiens, HT-29.
In the case of `COc1cc(/C=C/c2nc3ccccc3s2)cc(OC)c1OC` [Formula (I)(d)], the GI50 is reported as 0.038 nM.

Same assay, conditions: Homo sapiens, HT-29, read-out: LC50
Work on `COc1cc(/C=C/c2nc3ccccc3s2)cc(OC)c1OC` [Formula (I)(d)] yielded a CC50 of over 100000 nM.

What follows are compounds tested on KM12 in the same assay as above. Conditions: Homo sapiens, KM12.
In the case of `COc1cc(/C=C/c2nc3ccccc3s2)cc(OC)c1OC` [Formula (I)(d)], the GI50 is reported as 0.072 nM.

Same assay, conditions: Homo sapiens, KM12, read-out: LC50
Compound `COc1cc(/C=C/c2nc3ccccc3s2)cc(OC)c1OC` [Formula (I)(d)] has a CC50 of 41600 nM.

These compounds were tested on CAKI-1 (assay: NCI growth inhibition and cytotoxicity screen, Renal Cancer panel). Conditions: Homo sapiens, CAKI-1.
Compound `COc1cc(/C=C/c2nc3ccccc3s2)cc(OC)c1OC` [Formula (I)(d)] has a GI50 of 0.14 nM.

Same assay, conditions: Homo sapiens, CAKI-1, read-out: LC50
In the case of `COc1cc(/C=C/c2nc3ccccc3s2)cc(OC)c1OC` [Formula (I)(d)], the CC50 is reported as over 100000 nM.

Each compound was assayed on RXF 393 in the same assay as above. Conditions: Homo sapiens, RXF 393.
`COc1cc(/C=C/c2nc3ccccc3s2)cc(OC)c1OC` [Formula (I)(d)] gave a GI50 of 0.14 nM.

Same assay, conditions: Homo sapiens, RXF 393, read-out: LC50
`COc1cc(/C=C/c2nc3ccccc3s2)cc(OC)c1OC` [Formula (I)(d)] was tested, and the CC50 was 97600 nM.

These compounds were tested on UO-31 in the same assay as above. Conditions: Homo sapiens, UO-31.
`COc1cc(/C=C/c2nc3ccccc3s2)cc(OC)c1OC` [Formula (I)(d)] was tested, and the GI50 was 0.37 nM.

Same assay, conditions: Homo sapiens, UO-31, read-out: LC50
`COc1cc(/C=C/c2nc3ccccc3s2)cc(OC)c1OC` [Formula (I)(d)] was tested, and the CC50 was over 100000 nM.

Each compound was assayed on MCF7 (assay: NCI growth inhibition and cytotoxicity screen, Breast Cancer panel). Conditions: Homo sapiens, MCF7.
In the case of `COc1cc(/C=C/c2nc3ccccc3s2)cc(OC)c1OC` [Formula (I)(d)], the GI50 is reported as 0.31 nM.

Same assay, conditions: Homo sapiens, MCF7, read-out: LC50
With `COc1cc(/C=C/c2nc3ccccc3s2)cc(OC)c1OC` [Formula (I)(d)] the CC50 was 51500 nM.

The compounds below were run on HS 578T in the same assay as above. Conditions: Homo sapiens.
`COc1cc(/C=C/c2nc3ccccc3s2)cc(OC)c1OC` [Formula (I)(d)] gave a GI50 of 0.17 nM.

Same assay, conditions: Homo sapiens, read-out: LC50
Compound `COc1cc(/C=C/c2nc3ccccc3s2)cc(OC)c1OC` [Formula (I)(d)] has a CC50 of over 100000 nM.

The compounds below were run on OVCAR-8 (assay: NCI growth inhibition and cytotoxicity screen, Ovarian Cancer panel). Conditions: Homo sapiens, OVCAR-8.
Compound `COc1cc(/C=C/c2nc3ccccc3s2)cc(OC)c1OC` [Formula (I)(d)] has a GI50 of 0.39 nM.

Same assay, conditions: Homo sapiens, OVCAR-8, read-out: LC50
`COc1cc(/C=C/c2nc3ccccc3s2)cc(OC)c1OC` [Formula (I)(d)] gave a CC50 of over 100000 nM.

Each compound was assayed on NCI/ADR-RES in the same assay as above. Conditions: Homo sapiens.
`COc1cc(/C=C/c2nc3ccccc3s2)cc(OC)c1OC` [Formula (I)(d)] was tested, and the GI50 was 0.1 nM.

Same assay, conditions: Homo sapiens, read-out: LC50
`COc1cc(/C=C/c2nc3ccccc3s2)cc(OC)c1OC` [Formula (I)(d)] showed a CC50 of over 100000 nM.

These compounds were tested on PC-3 (assay: NCI growth inhibition and cytotoxicity screen, Prostate Cancer panel). Conditions: Homo sapiens, PC-3.
For `COc1cc(/C=C/c2nc3ccccc3s2)cc(OC)c1OC` [Formula (I)(d)], the GI50 was 0.13 nM.

Same assay, conditions: Homo sapiens, PC-3, read-out: LC50
For `COc1cc(/C=C/c2nc3ccccc3s2)cc(OC)c1OC` [Formula (I)(d)], the CC50 was over 100000 nM.
